Source: patent US20030078274A1, “Method of reducing neuronal injury or apoptosis” (priority 1999, published 2003)

Tests used:
[1] = tested on: cultured RGCs; test: NMDA-induced apoptosis in cultured RGCs; assay type: cell-based, Long-Evans rats; conditions: 1 μM; 300 μM NMDA/5 μM glycine for 18 hr
Description: Retinal cell cultures. Retinal cells were prepared from 6-10 day old Long-Evans rats as described in Leifer et al., Science 224:303-306 (1984). Briefly, following dissociation in papain, retinal cells were plated on poly-L-lysine-coated glass coverslips in Eagle's minimum essential medium. RGCs were identified by immunocytochemical staining using an anti-Thy-1 antibody (2G12), which is specific among rat retinal cells for the ganglion cells.
Assessment of NMDA-induced apoptosis in cultured RGCs. To induce predominantly apoptosis (See Bonfoco et al., Proc. Natl. Acad. Sci. USA 92:7162-7166 (1995); Dreyer et al., Neuroreport 6:942-944 (1995)), retinal cell cultures were exposed to 300 μM NMDA/5 μM glycine for 18 hr in high calcium (3 mM) medium. For specific labeling of RGCs, the cultures were incubated with anti-Thy-1 antibody for 1 hr. Following 3 washes with PBS, cells were incubated in goat-anti-mouse-IgG-FITC for 1 hr. For assessment of apoptosis, retinal cells were fixed, permeabilized and stained with 20 μg/ml propidium iodide for 5 min, as described in Ankarcrona et al., Neuron 15:961-973 (1995). Briefly, coverslips containing the cells were washed once with PBS and permeabilized with 85% methanol for 10 min. […] Apoptotic nuclei were scored in cells that were also stained by anti-Thy-1, and expressed as a fraction of total RGCs.

[2] = tested on: neurons in rat cerebrocortical cultures (SDF-1-induced apoptosis); test: SDF-1-induced neuronal apoptosis in rat cerebrocortical cultures; assay type: cell-based, Sprague-Dawley rats; conditions: p38 MAPK inhibition by SB 203580, FIG. 4(B)
Description: The model used in the assays described below, i.e., rat cerebrocortical cultures, was prepared from embryos of Sprague-Dawley rats at day 15 to 17 of gestation. See Lei et al., Neuron 8:1087-1099 (1992) and Lipton et al., Nature 364:626-632 (1993). Cultures were used for experiments after 17 to 24 days in culture. These cultures contain neurons, astrocytes, and macrophages/microglia, as determined with specific immunolabeling. Prior to some experiments, macrophages/microglia or neurons were depleted from the cultures by exposure to 7.5 mM L-leucine methyl ester or 2 mM N-methyl-D-aspartate (NMDA), respectively. See Lipton, NeuroReport 3:913-915 (1992). Absence of macrophages/microglia or neurons in these cultures was confirmed immunocytochemically, using antibodies to ED-1 and microtubule-associated protein-2 (MAP-2), respectively. In some experiments, the Griess reaction was used to measure nitrite levels in the culture medium as an index of nitric oxide (NO) release. See Chao et al., Glia 16:276-284 (1996). […]
Neuronal apoptosis in the above-described assays was assessed using a variety of techniques, e.g., staining of permeabilized cells with propidium iodide to determine apoptotic morphology, and a neuron-specific antibody (against NeuN or MAP-2) to identify cell type. […]

[3] = tested on: neurons in rat cerebrocortical cultures (gp120-induced apoptosis); test: gp120-induced neuronal apoptosis in rat cerebrocortical cultures; assay type: cell-based, Sprague-Dawley rats; conditions: SB 203580 10 μM, applied 15 min before gp120
Description: The model used in the assays described below, i.e., rat cerebrocortical cultures, was prepared from embryos of Sprague-Dawley rats at day 15 to 17 of gestation. See Lei et al., Neuron 8:1087-1099 (1992) and Lipton et al., Nature 364:626-632 (1993). Cultures were used for experiments after 17 to 24 days in culture. […] Prior to some experiments, macrophages/microglia or neurons were depleted from the cultures by exposure to 7.5 mM L-leucine methyl ester or 2 mM N-methyl-D-aspartate (NMDA), respectively. See Lipton, NeuroReport 3:913-915 (1992). […] In some experiments, the Griess reaction was used to measure nitrite levels in the culture medium as an index of nitric oxide (NO) release. See Chao et al., Glia 16:276-284 (1996).
Cultures were transferred into Earle's Balanced Salt Solution (EBSS) and incubated for 24 hours with gp120, chemokines, Tuftsin fragment 1-3, i.e., Thr-Lys-Pro (TKP), p38 MAPK inhibitor SB 203580 (i.e., 4-(4-fluorophenyl)-2-(4-methylsulfinylphenyl)-5-(4-pyridyl)imidazole, Calbiochem, San Diego, Calif.), or combinations thereof. Chemokines or TKP were applied for 5 minutes and SB 203580 for 15 minutes prior to gp120 exposure.
TKP was obtained from Sigma (St. Louis, Mo.). Recombinant human MIP-1β, SDF-1α, SDF-1β, and recombinant rat RANTES were purchased from R&D systems ([…].) and Endogen (Woburn, Mass.), respectively. HIV-1 envelope glycoprotein gp120 from the strain SF2 was obtained from the NIH AIDS Research and Reference Reagent Program, Division of AIDS, NIAID, NIH. See Scandella et al., AIDS Res. Hum. Retroviruses 9:1233-1244 (1993). Additional gp120s from HIV-1 strains IIIB and RF2 were obtained from Genetech and the National Cancer Institute, respectively. TNFα, IFNγ, and IL-1β were from Genzyme (Cambridge, Mass.), Gibco BRL (Grand Island, N.Y.) and Endogen (Woburn, Mass.), respectively.
Neuronal apoptosis in the above-described assays was assessed using a variety of techniques, e.g., staining of permeabilized cells with propidium iodide to determine apoptotic morphology, and a neuron-specific antibody (against NeuN or MAP-2) to identify cell type. In brief, cells were fixed for 5 minutes with ice-cold acetone at −20° C. and, after three washes in PBS, for 4 minutes with 2% (w/v) paraformaldehyde solution in PBS at room temperature (RT). Acetone-paraformaldehyde-fixed cells were permeabilized using 0.2% Tween 20 in PBS (PBST), and non-specific binding sites were blocked by incubation for 1 hour with a 10% solution of heat-inactivated goat serum in PBST. To specifically stain neurons, cells were then incubated for 4 hours at RT or overnight at 4° C. with 1:500 dilutions of anti-MAP-2 (Sigma) or anti-NeuN monoclonal antibody (mAb; Chemicon, Temecula, Calif.). Their respective non-specific isotype antibodies served as controls. After three washes, the cells were incubated in a secondary polyclonal antibody (pAb) conjugated either to fluorescein isothiocyanate (FITC) or to horseradish peroxidase (HRP). In the case of HRP-coupled pAb, diaminobenzidine (DAB) served as the color substrate developed by incubation in a mixture of 1 mg/ml DAB and 0.8% H2O2 at a ratio of 3:1. Cellular nuclei were subsequently stained with […] propidium iodide for 5 minutes in the dark, and then coverslips were mounted on glass slides. Experiments were replicated at least 3 times with triplicate values in each experiment. Statistical significance was judged by an analysis of variance (ANOVA) followed by a Scheffé or Bonferroni/Dunn post hoc test.

## C[S+]([O-])c1ccc(-c2nc(-c3ccc(F)cc3)c(-c3ccncc3)[nH]2)cc1 (stereo not drawn) [SB 203580, 4-(4-fluorophenyl)-2-(4-methylsulfinylphenyl)-5-(4-pyridyl)-1H-imidazole]
[1]
  survival of RGCs in the face of NMDA exposure: significantly increased
[2]
  effect on SDF-1 neurotoxicity (SDF-1β-induced neuronal apoptosis): ameliorated
[3]
  effect on gp120SF2-induced neuronal apoptosis: substantially attenuated
